Here are results for 16 compounds from PubChem BioAssay (NCI).

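1) Cells in 96-well plates. 2) Compound, 48 h, 5 concentrations. 3) Linear interpolation between surrounding doses. 4) Unreached endpoint = highest concentration. The concentration for 50% growth inhibition is given as GI50. The concentration for full growth arrest is given as TGI.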 A value given as a limit tells only on which side of the number the result lay.

Test systems include CAKI-1 renal; KM12 colon; OVCAR-3 ovarian; SK-OV-3 ovarian; SNB-75 CNS; U251 CNS; BT-549 breast; DU-145 prostate; T-47D breast; MDA-MB-231 breast.
Assay in all cases: NCI anticancer screen, dose series, 48 h

In the case of `O=C(/C=C/c1ccc(Cl)c(Cl)c1)c1cccc2ccccc12`, the TGI stood at 20.4 µM with CAKI-1 renal; 16.3 µM in the assay on KM12 colon; 18.6 µM in the assay with OVCAR-3 ovarian; 35.2 µM in the assay with SK-OV-3 ovarian; 14 µM in the assay with SNB-75 CNS; 6.89 µM with U251 CNS.

Take `CNNC(=NS(=O)(=O)c1cc(C#N)c(NNC)cc1S)NNC`: the TGI with BT-549 breast, in the assay on CAKI-1 renal, in the assay with DU-145 prostate, with KM12 colon, with OVCAR-3 ovarian and in the assay with SK-OV-3 ovarian was above 10 µM each time. In addition, the TGI with SNB-75 CNS, with T-47D breast and in the assay with U251 CNS was above 10 µM throughout.

As to `N#CC1(C#N)C(c2ccccc2)C=CC12OCCCO2` (configuration not stated), the TGI with CAKI-1 renal was 74.1 µM; in the assay with KM12 colon, above 100 µM; in the assay with OVCAR-3 ovarian it was above 100 µM; in the assay on SK-OV-3 ovarian, above 100 µM; with SNB-75 CNS, above 100 µM; with U251 CNS it was above 100 µM.

Regarding `Cc1ccc(NC(=O)C(=O)C(C(=O)/C=C/c2ccccc2)C2OC(=O)c3ccccc32)c(C)c1` (configuration not stated), the TGI in the assay on CAKI-1 renal, with KM12 colon, with OVCAR-3 ovarian, in the assay on SK-OV-3 ovarian, in the assay with SNB-75 CNS and in the assay with U251 CNS was above 100 µM in each case.

In the case of `CC1=C(CC2C(=O)N(c3ccccc3)S(=O)(=O)NC2C)C(=O)N(c2ccccc2)S(=O)(=O)N1C` (configuration not stated), the TGI in the assay with CAKI-1 renal, in the assay on KM12 colon, with OVCAR-3 ovarian, in the assay on SK-OV-3 ovarian and with SNB-75 CNS was above 100 µM in each case.

In the case of `O=C(NCCNCCO)c1cccc2ccc(-c3ccccc3)nc12`, the TGI with CAKI-1 renal amounted to 14.1 µM; with KM12 colon, 18.3 µM; with OVCAR-3 ovarian, 25.1 µM; in the assay with SK-OV-3 ovarian it was 27.7 µM; in the assay on SNB-75 CNS, 22.3 µM; in the assay on U251 CNS, 17.4 µM.

Take `Cc1ccncc1C(N)=O`: the GI50 in the assay with CAKI-1 renal, in the assay on DU-145 prostate, with KM12 colon, with MDA-MB-231 breast, in the assay on OVCAR-3 ovarian and in the assay with SK-OV-3 ovarian was above 100 µM each time. The GI50 with SNB-75 CNS, in the assay on T-47D breast and in the assay with U251 CNS was above 100 µM in each case. For the same compound, the TGI with CAKI-1 renal, with DU-145 prostate, in the assay on KM12 colon, in the assay with MDA-MB-231 breast, with OVCAR-3 ovarian and in the assay with SK-OV-3 ovarian was above 100 µM in each case. The TGI in the assay on SNB-75 CNS, in the assay with T-47D breast and in the assay on U251 CNS was above 100 µM each time.

`CC(CO)(Nc1ccc([N+](=O)[O-])cc1[N+](=O)[O-])C(=O)O` (configuration not stated): the TGI with BT-549 breast is 67.2 µM; in the assay with CAKI-1 renal it was 89.8 µM; with DU-145 prostate, 48.9 µM; in the assay with KM12 colon it was above 100 µM; in the assay on MDA-MB-231 breast, above 100 µM; with OVCAR-3 ovarian it was 42 µM. The compound also returned a TGI with U251 CNS of 49.2 µM.

As to `COc1ccc(-c2cc(=O)c3c(O)cccc3o2)c(OC)c1OC`, the TGI was above 100 µM in the assay with CAKI-1 renal; above 100 µM in the assay with KM12 colon; above 100 µM in the assay with OVCAR-3 ovarian; above 100 µM in the assay with SK-OV-3 ovarian; 75.5 µM in the assay with SNB-75 CNS; above 100 µM with U251 CNS.

Regarding `NNc1nnc(-c2nnc(NN)o2)o1`, the TGI in the assay with BT-549 breast, in the assay with CAKI-1 renal, in the assay on DU-145 prostate, with KM12 colon, in the assay with MDA-MB-231 breast and in the assay on OVCAR-3 ovarian was above 10 µM each time. The TGI in the assay on T-47D breast and in the assay on U251 CNS was above 10 µM each time.

In the case of `Cc1cc2c(c(C(N)=O)c1C)-c1cc(Cl)cc(Cl)c1C2=O`, the TGI is above 100 µM with KM12 colon; above 100 µM in the assay on OVCAR-3 ovarian; above 100 µM in the assay on SK-OV-3 ovarian; 45.6 µM with SNB-75 CNS; above 100 µM with U251 CNS.

For the compound `O=C(Nc1ccccc1OC(=O)c1ccccc1)c1ccccc1`, the GI50 in the assay with CAKI-1 renal is 5.84 µM; in the assay on DU-145 prostate it was 23.1 µM; with KM12 colon it was 3.12 µM; in the assay on MDA-MB-231 breast, 6.44 µM; in the assay on OVCAR-3 ovarian, 3.94 µM; in the assay on SK-OV-3 ovarian, 33.6 µM. The GI50 with SNB-75 CNS was 7.72 µM; in the assay on T-47D breast, 41.9 µM; in the assay on U251 CNS, 6.35 µM. For the same compound, the TGI in the assay with CAKI-1 renal was 54.4 µM; in the assay on DU-145 prostate, 88.7 µM; in the assay on KM12 colon it was 10.9 µM; in the assay with MDA-MB-231 breast, above 100 µM; in the assay on OVCAR-3 ovarian it was 22.2 µM; in the assay with SK-OV-3 ovarian it was above 100 µM. Also, the TGI in the assay with SNB-75 CNS, in the assay with T-47D breast and in the assay on U251 CNS was above 100 µM each time.

For the compound `O=C(c1ccccc1)c1c(CC(O)c2ccncc2)n(C(=O)c2ccccc2)c2ccccc12` (configuration not stated), the TGI is 59.7 µM in the assay on CAKI-1 renal; 37.8 µM in the assay with KM12 colon; 28.9 µM with OVCAR-3 ovarian; 41.4 µM in the assay with SNB-75 CNS; 31.6 µM in the assay on U251 CNS.

`COc1ccc(NC(=O)C(=O)/C=C(\O)c2ccccc2)cc1`: the TGI in the assay with CAKI-1 renal, in the assay on DU-145 prostate, with KM12 colon, with MDA-MB-231 breast, in the assay with SK-OV-3 ovarian and with SNB-75 CNS was above 10 µM throughout. In the assay with T-47D breast, this compound gave a TGI above 10 µM.

As for `CCOC(=O)C1Nc2ccccc2[C@H]2OCC[C@@H]12` (some centres not stated), the TGI in the assay on CAKI-1 renal, with KM12 colon, with OVCAR-3 ovarian, in the assay on SK-OV-3 ovarian, in the assay on SNB-75 CNS and in the assay with U251 CNS was above 100 µM in each case.

As to `O=C(O)c1cc(CCc2cc(O)ccc2O)ccc1O`, the TGI in the assay with BT-549 breast, in the assay with CAKI-1 renal, in the assay with DU-145 prostate, in the assay with KM12 colon, with OVCAR-3 ovarian and in the assay on SK-OV-3 ovarian was above 100 µM in each case. Also, the TGI with SNB-75 CNS, in the assay with T-47D breast and with U251 CNS was above 100 µM throughout.
